This is an account of results in patent US10280179B2, “Spiroquinoxaline derivatives as inhibitors of non-apoptotic regulated cell-death” (Helmholtz Zentrum Munchen—Deutches Forschungszentrum Fur …, priority 2013, dated 2019).

In series [1] the test system is C57BL/6 mice. Nature of the series: Kidney ischemia-reperfusion injury animal model (Example C.2). Format: in vivo, mouse. To be noted: kidney IRI, compared to vehicle control, FIG. 3. On the procedure: FIG. 3: Efficacy of a compound of the invention in an animal model of kidney IRI.
Briefly, to test such utility of compounds disclosed herein, ischemia is induced in the kidney of 6-8 week old C57BL/6 mice by interruption of the blood supply to the kidney via reversible clipping of the Arteria renalis for 30 min, followed by reperfusion for a period of 24 h. Mice are treated with compound (or vehicle control) generally as described in Example C.1 at 1 hour prior to and four hours after abdominal closure and once daily over a period of 14 days. Markers to be investigated for IRI of kidney include reduction of creatinine levels in the serum along with histopathological analysis.

Series [2] in a line: Cellular toxicity, same assay as Example B.4 without TAM (Example B.5). In kind it is cell-based. To be noted: mouse; Pfa1 cells without TAM; read-out: TC50 (the source's name). From the text:
Cellular Toxicity of Compounds of the Invention
An estimate of the toxicity for compounds of the invention was obtained by using the same assay as described in Example B.4, but without the addition of TAM. […] Such TC50 values obtained for certain compounds disclosed herein, together with an approximate therapeutic window (estimated by dividing each TC50 by the corresponding IC50 determined from example B.4) are shown in Table 3.

Series [3] has as its system C57BL/6 mice. Nature of the series: Liver ischemia-reperfusion injury animal model (Example C.1). In kind it is in vivo, mouse. To be noted: liver IRI (90 min ischemia, 24 h reperfusion), single i.p. dose 10 mg/Kg, compared to vehicle control. On the procedure:
FIG. 2: Efficacy of a compound of the invention in an animal model of liver IRI. […] The “Sham” bar represents the data from control animals that were treated to the same protocol but without atraumatic clipping. Errors shown are SEM. Significant differences are seen between IRI+vehicle compared to IRI+Cmpd, as well as between IRI+vehicle compared to Sham+vehicle.
Briefly, to test such utility of compounds disclosed herein, ischemia is induced in the liver of 6-8 week old C57BL/6 mice (Charles River) by midline laparotomy whereby the blood supply to the left and median lobes of the liver is interrupted via atraumatic clipping for 90 min, followed by reperfusion for a period of 24 h. After reperfusion, but prior to final abdominal closure, animals are treated with a single i.p. dose of the compound to be tested (10 mg/Kg), or with vehicle (DMSO) as negative control. Markers to be investigated for IRI of liver include liver parameters from serum (ALT/GPT, AST/GOT, Bilirubin, Urea), histopathological analysis and rtPCR of inflammatory and non-apoptotic cell death markers (such as TNF-alpha and INF-gamma). […] The “Sham” bar represents the data from control animals that were treated to the same protocol but without atraumatic clipping.

The subject of series [4] is mouse hippocampal cell line (Ht22). The series can be described thus: Inhibition of glutamate-induced non-apoptotic cell death (Example B.2). In kind it is cell-based. Conditions: HT-22, Ht22 cells. The procedure, abridged: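 Protection from lethal glutamate (5 mM final) measured in mouse hippocampal Ht22 cells co-treated at seeding with compound from 0.5 pM to 100 μM, in triplicate. Survival read after 72 h at 37 °C/5% CO2, against glutamate-only and alpha-tocopherol controls.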

The subject of series [5] is human neuroblastoma cell line SH-SY5Y. The series can be described thus: Inhibition of BSO-induced non-apoptotic cell death (Example B.1). In kind it is cell-based. To be noted: SH-SY5Y cells, 72 hours. The procedure, abridged: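 SH-SY5Y cells exposed to 50 μM BSO together with compound (0.5 pM–100 μM, triplicate) for 72 h at 37°C, 5% CO2. Survival measured by AquaBluer fluorescence (ex 530–560/em 590 nm), normalised to percent surviving cells, and IC50 derived.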

Structures are written as SMILES. Where two headings read alike, the source gives them in different places. A value given as a limit tells only on which side of the number the result lay.

On to `Clc1cccc(CNC2=Nc3ccccc3NC23CCNCC3)c1` [N-2], for which the “survival of mice suffering kidney-ischemic reperfusion injury” value in the series on C57BL/6 mice [1] (dose 1 mg/kg) and in the series with C57BL/6 mice [1] (dose 10 mg/kg) was “Improved survival” in each case. Also, the CC50 in series [2] was in the range of 5000 to 10000 nM. Besides, the “serum marker for liver cell damage GPT” value with C57BL/6 mice [3] (FIG. 2(a)) is listed as “significant reduction”. Moreover, in the series on C57BL/6 mice [3] (FIG. 2(b)), the “serum marker for liver cell damage GOT” value is “significant reduction”. The IC50 was roughly 10 nM in series [4] (glutamate 5 mM, 72 hours, cell survival, read-out: Ht22/GLU (Example B.2) IC50); less than 200 nM in series [4] (glutamate-induced cell death, read-out: Ht22/GLU); less than 20 nM in series [5] (50 μM BSO, read-out: SH-SY5Y/BSO IC50); 2.81 nM in series [5] (BSO 50 μM, cell survival (AquaBluer), read-out: SH-SY5Y/BSO (Example B.1) IC50).
